Source: the SangsterLogP compilation

logP | SMILES
1.07 | O=C(O)CCCCCON=C(c1ccccc1)c1ncccn1
2.49 | O=C(O)CCCCCO/N=C(\c1cccc(C(F)(F)F)c1)c1ccncn1
1.94 | O=C(O)CCCCCO/N=C(/c1cccc(C(F)(F)F)c1)c1ncccn1
0.08 | O=C(O)CCCCCO/N=C(/c1ccccc1)c1ccncn1
1.81 | O=C(O)CCCCO/N=C(/c1ccnnc1)c1cccc(C(F)(F)F)c1
0.63 | O=C(O)CCCCO/N=C(\c1cncnc1)c1cccc(C(F)(F)F)c1
2.56 | O=C(O)CCCCCO/N=C(\c1cccc(C(F)(F)F)c1)c1cnccn1
-0.38 | O=C(O)CCCO/N=C(/c1ccccc1)c1cncnc1
-0.19 | O=C(O)CCCCO/N=C(\c1ccccc1)c1ccncn1
1.74 | O=C(O)CCCCON=C(c1cccc(C(F)(F)F)c1)c1ccncn1
-0.47 | O=C(O)CCCO/N=C(\c1ccccc1)c1ccncn1
0.5 | O=C(O)CCCCO/N=C(\c1ccccc1)c1ncccn1
0.36 | O=C(O)CCCO/N=C(\c1ccccc1)c1ncccn1
1.07 | O=C(O)CCCCCO/N=C(\c1cncnc1)c1cccc(C(F)(F)F)c1
1.53 | O=C(O)CCCCO/N=C(\c1cccc(C(F)(F)F)c1)c1ncccn1
2.19 | O=C(O)CCCCCO/N=C(\c1cccc(C(F)(F)F)c1)c1cccnn1
2.27 | O=C(O)CCCCCO/N=C(/c1ccnnc1)c1cccc(C(F)(F)F)c1
1.08 | O=C(O)CCCCO/N=C(\c1cccc(C(F)(F)F)c1)c1cnccn1
-0.21 | O=C(O)CCCCO/N=C(\c1ccccc1)c1cncnc1
